According to ChEMBL document CHEMBL4680174, “Synthesis, biological evaluation and in silico modeling of novel integrase strand transfer inhibitors (INSTIs)” (Eur J Med Chem, 2020):
≈ marks a conversion by molar mass, not a printed value. Blank lines part the entries; values can stand above or below the compound they belong to.

What was measured:
[1] = Thermodynamic solubility of compound in water at 2 mg after 24 hrs; assay type: physicochemical; conditions: read-out: Therm_solubility
[2] = Thermodynamic solubility of compound in plON buffer at 2 mg after 24 hrs; assay type: physicochemical; conditions: read-out: Therm_solubility
[3] = Selectivity index, ratio of CC50 for human CEM-SS cells to EC50 for Antiviral activity against HIV1 3B infected in human CEM-SS cells; assay type: toxicity, cell-based
[4] = system: Human immunodeficiency virus 1; test: Antiviral activity against HIV1 3B infected in human CEM-SS cells assessed as reduction in cytopathic effect after 4 days; assay type: functional, organism-based
[5] = Elimination rate constant Sprague-Dawley rat at 10 mg/kg, po up to 24 hrs by LC-MS/MS analysis; assay type: ADME, organism-based; conditions: in vivo
[6] = AUCinfinity in Sprague-Dawley rat at 10 mg/kg, po up to 24 hrs by LC-MS/MS analysis; assay type: ADME, organism-based; parameters: route oral, dose 10 mg/kg, time <=24; conditions: in vivo
[7] = Stability in rat liver microsomes assessed as parent compound remaining at 1 uM up to 24 hrs by LC-MS/MS analysis; assay type: ADME, Microsome; conditions: read-out: Stabilty
[8] = Tmax in Sprague-Dawley rat at 10 mg/kg, po up to 24 hrs by LC-MS/MS analysis; assay type: ADME, organism-based; conditions: in vivo
[9] = Cmax in Sprague-Dawley rat at 2 mg/kg, iv up to 24 hrs by LC-MS/MS analysis; assay type: ADME, organism-based; parameters: route intravenous, dose 2 mg/kg, time <=24; conditions: in vivo
[10] = Tmax in Sprague-Dawley rat at 2 mg/kg, iv up to 24 hrs by LC-MS/MS analysis; assay type: ADME, organism-based; conditions: in vivo
[11] = Drug concentration in Sprague-Dawley rat at 10 mg/kg, po after 24 hrs by LC-MS/MS analysis; assay type: ADME, organism-based; conditions: in vivo, read-out: Drug uptake
[12] = Elimination rate constant Sprague-Dawley rat at 2 mg/kg, iv up to 24 hrs by LC-MS/MS analysis; assay type: ADME, organism-based; conditions: in vivo
[13] = Oral bioavailability in Sprague-Dawley rat at 10 mg/kg up to 24 hrs by LC-MS/MS analysis; assay type: ADME, organism-based; conditions: in vivo
[14] = Cmax in Sprague-Dawley rat at 10 mg/kg, po up to 24 hrs by LC-MS/MS analysis; assay type: ADME, organism-based; parameters: route oral, dose 10 mg/kg, time <=24; conditions: in vivo
[15] = Stability in human liver microsomes assessed as parent compound remaining at 1 uM up to 24 hrs by LC-MS/MS analysis; assay type: ADME, Microsome; conditions: read-out: Stabilty
[16] = Drug concentration in Sprague-Dawley rat at 2 mg/kg, iv after 24 hrs by LC-MS/MS analysis; assay type: ADME, organism-based; conditions: in vivo, read-out: Drug uptake
[17] = Drug concentration in Sprague-Dawley rat at 10 mg/kg, po after 8 hrs by LC-MS/MS analysis; assay type: ADME, organism-based; conditions: in vivo, read-out: Drug uptake
[18] = AUClast in Sprague-Dawley rat at 10 mg/kg, po up to 24 hrs by LC-MS/MS analysis; assay type: ADME, organism-based; parameters: route oral, dose 10 mg/kg, time <=24; conditions: in vivo
[19] = AUClast in Sprague-Dawley rat at 2 mg/kg, iv up to 24 hrs by LC-MS/MS analysis; assay type: ADME, organism-based; parameters: route intravenous, dose 2 mg/kg, time <=24; conditions: in vivo
[20] = MRTlast in Sprague-Dawley rat at 2 mg/kg, iv up to 24 hrs by LC-MS/MS analysis; assay type: ADME, organism-based; conditions: in vivo
[21] = AUCinfinity in Sprague-Dawley rat at 2 mg/kg, iv up to 24 hrs by LC-MS/MS analysis; assay type: ADME, organism-based; parameters: route intravenous, dose 2 mg/kg, time <=24; conditions: in vivo
[22] = Half life in Sprague-Dawley rat at 10 mg/kg, po up to 24 hrs by LC-MS/MS analysis; assay type: ADME, organism-based; conditions: in vivo
[23] = MRTlast in Sprague-Dawley rat at 10 mg/kg, po up to 24 hrs by LC-MS/MS analysis; assay type: ADME, organism-based; conditions: in vivo
[24] = Cytotoxicity against human CEM-SS cells assessed as reduction in cell viability by XTT assay; assay type: cell-based
[25] = Drug concentration in Sprague-Dawley rat at 2 mg/kg, iv after 8 hrs by LC-MS/MS analysis; assay type: ADME, organism-based; conditions: in vivo, read-out: Drug uptake
[26] = Protein binding in rat plasma at 1 uM after 4 hrs by LC-MS/MS analysis; assay type: ADME, cell-free; conditions: read-out: PPB (converted)
[27] = Protein binding in human plasma at 1 uM after 4 hrs by LC-MS/MS analysis; assay type: ADME, cell-free; conditions: read-out: PPB
[28] = system: Human immunodeficiency virus 1; test: Antiviral activity against HIV1 3B; assay type: functional, organism-based; conditions: Human immunodeficiency virus 1, 3B
[29] = system: Human immunodeficiency virus 1; test: Antiviral activity against HIV1 3B infected in human CEM-SS cells assessed as reduction in cytopathic effect at 2 nM after 4 days; assay type: functional; parameters: scale not given: the % may be the effect or the level left; conditions: time 4 day
[30] = Human immunodeficiency virus 1, 3B, CEM-SS, 96 h

SMILES: C[C@H]1CO[C@@H]2Cn3cc(C(=O)NCc4ccc5nonc5c4)c(=O)c(O)c3C(=O)N12
k el at 24 h [5]: 5.56e-06 s⁻¹
AUC [6]: 200.296 µg·h/mL
solubility thermodynamic at 24 h [1]: 2.85 µg/mL (≈ 6.93 µM)
remaining at 24 h, 1 µM [7]: 110%
Tmax [8]: 6.67 h
Cmax [9]: 37200 ng/mL
Tmax [10]: 1 h
concentration at 24 h [11]: 4440 ng/mL
solubility thermodynamic at 24 h [2]: 3.2 µg/mL (≈ 7.78 µM)
Kel [12]: 0.03 h⁻¹
F [13]: 17.5%
Cmax [14]: 3680 ng/mL
remaining at 24 h, 1 µM [15]: 105%
concentration at 24 h [16]: 16600 ng/mL
concentration at 8 h [17]: 3470 ng/mL
AUC(0-t) at 24 h [18]: 66.9 µg·h/mL
AUC(0-t) at 24 h [19]: 578 µg·h/mL
MRTlast [20]: 9.81 h
EC50 [4, 30]: 0.43 nM
AUC [21]: 1139.52 µg·h/mL
half-life [22]: 35 h
MRT last at 24 h [23]: 11.3 h
CC50 [24]: > 10 nM
concentration at 8 h [25]: 24500 ng/mL
fraction unbound at 4 h, 1 µM [26]: 0.9
fraction unbound at 4 h, 1 µM [27]: 0.001

SMILES: C[C@H]1CO[C@@H]2Cn3cc(C(=O)NCc4ccncc4F)c(=O)c(O)c3C(=O)N12
solubility thermodynamic at 24 h [1]: 78 µg/mL (≈ 201 µM)
solubility thermodynamic at 24 h [2]: 91 µg/mL (≈ 234 µM)
EC50 [4, 30]: > 10 nM
CC50 [24]: > 10 nM

SMILES: C[C@H]1CO[C@@H]2Cn3cc(C(=O)NCc4cc5c(cc4Br)OCO5)c(=O)c(O)c3C(=O)N12
solubility thermodynamic at 24 h [1]: 21 µg/mL (≈ 42.7 µM)
solubility thermodynamic at 24 h [2]: 21 µg/mL (≈ 42.7 µM)
selectivity ratio ([3]; CEM-SS cells, read-out: Ratio CC50/EC50): > 5.2
EC50 [4, 30]: 1.93 nM
CC50 [24]: > 10 nM

SMILES: O=C(NCc1c(F)cc(F)cc1F)c1cn2c(c(O)c1=O)C(=O)N1[C@H]3CC[C@H](C3)O[C@@H]1C2 [BICTEGRAVIR]
EC50 [28]: 1 nM

SMILES: C[C@H]1CO[C@@H]2Cn3cc(C(=O)NCc4ccc(F)cc4F)c(=O)c(O)c3C(=O)N12 [CABOTEGRAVIR]
Activity [29]: >50%

More lines, main results first:

solubility thermodynamic at 24 h [1]: 2680 µg/mL
solubility thermodynamic at 24 h [2]: 1680 µg/mL
EC50 ([4]; cem-ss): 4.8 nM
SMILES: C[C@H]1CO[C@@H]2Cn3cc(C(=O)NCc4ccc(F)nc4F)c(=O)c([O-])c3C(=O)N12.[Na+]
Ratio CC50/EC50 [3]: > 2.08

solubility thermodynamic at 24 h [1]: 56 µg/mL (≈ 127 µM)
solubility thermodynamic at 24 h [2]: 70 µg/mL (≈ 159 µM)
EC50 [4, 30]: > 10 nM
SMILES: Cc1cc2c(cc1CNC(=O)c1cn3c(c(O)c1=O)C(=O)N1[C@@H](C)CO[C@@H]1C3)OCCO2
CC50 [24]: > 10 nM

EC50 [28]: 1.1 nM
SMILES: C[C@@H]1CCO[C@H]2Cn3cc(C(=O)NCc4ccc(F)cc4F)c(=O)c(O)c3C(=O)N12 [DOLUTEGRAVIR]
